Legend:
rat TRPV1 [1] = molecular target: T1, rat TRPV1 (Rattus norvegicus, UniProt O35433); test: functional 45Ca2+ uptake assay, agonism; assay type: cell-based; conditions: for functional pattern of agonism/antagonism: 45Ca2+ uptake, rat TRPV1 in CHO cells, result in words; for fold less potent than RTX for functional activity: agonism EC50 versus RTX
rat TRPV1 [2] = molecular target: T1, rat TRPV1; assay type: cell-based; conditions: Ki(ant) versus 5'-iodo RTX under the same assay conditions

T1 sequence (O35433 whole entry): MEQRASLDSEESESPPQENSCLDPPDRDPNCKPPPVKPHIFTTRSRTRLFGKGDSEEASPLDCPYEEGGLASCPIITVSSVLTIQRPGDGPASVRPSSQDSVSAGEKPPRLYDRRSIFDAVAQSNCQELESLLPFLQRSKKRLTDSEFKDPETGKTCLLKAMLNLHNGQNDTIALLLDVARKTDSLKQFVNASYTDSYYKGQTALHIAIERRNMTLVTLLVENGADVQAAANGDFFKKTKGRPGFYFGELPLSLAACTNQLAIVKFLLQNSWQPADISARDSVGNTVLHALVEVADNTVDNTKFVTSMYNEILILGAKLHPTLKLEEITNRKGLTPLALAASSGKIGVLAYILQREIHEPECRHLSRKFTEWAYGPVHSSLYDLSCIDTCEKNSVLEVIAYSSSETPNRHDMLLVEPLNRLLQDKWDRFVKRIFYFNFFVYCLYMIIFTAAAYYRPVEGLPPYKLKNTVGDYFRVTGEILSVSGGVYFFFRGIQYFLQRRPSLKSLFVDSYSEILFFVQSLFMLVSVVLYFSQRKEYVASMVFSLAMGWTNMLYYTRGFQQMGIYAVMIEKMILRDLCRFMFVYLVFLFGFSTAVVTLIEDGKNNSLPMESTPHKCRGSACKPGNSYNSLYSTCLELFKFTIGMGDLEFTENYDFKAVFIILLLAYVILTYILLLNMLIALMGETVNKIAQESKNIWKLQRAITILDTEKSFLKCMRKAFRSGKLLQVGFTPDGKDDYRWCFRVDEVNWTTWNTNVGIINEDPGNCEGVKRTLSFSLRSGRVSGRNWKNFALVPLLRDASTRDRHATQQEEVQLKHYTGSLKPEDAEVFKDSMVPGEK

Row | SMILES | functional pattern of agonism/antagonism (rat TRPV1 [1]) | further results
1 | C=C(C)[C@@]12C[C@@H](C)C34OC(Cc5ccccc5)(OC1[C@@H]3C=C(COC(=O)Cc1ccc(N)c(OC)c1)C[C@]1(O)C(=O)C(C)=C[C@@H]41)O2 (some centres unmarked) [compound 36, 4-amino RTX] | potent full agonism | fold less potent than RTX (Ki and EC50) (rat TRPV1 [1]; both binding Ki and agonism EC50 compared with RTX): 2–3 fold
2 | C=C(C)[C@@]12C[C@@H](C)C34OC(Cc5ccccc5)(OC1[C@@H]3C=C(COC(=O)Cc1cc(Br)cc(Br)c1)C[C@]1(O)C(=O)C(C)=C[C@@H]41)O2 (some centres unmarked) [compound 35] | full agonist | 
3 | C=C(C)[C@@]12C[C@@H](C)C34OC(Cc5ccccc5)(OC1[C@@H]3C=C(COC(=O)Cc1cc(Br)c(O)c(OC)c1)C[C@]1(O)C(=O)C(C)=C[C@@H]41)O2 (some centres unmarked) [compound 33] | partial antagonist | 
4 | C=C(C)[C@@]12C[C@@H](C)C34OC(Cc5ccccc5)(OC1[C@@H]3C=C(COC(=O)Cc1cc(Cl)c(N)c(OC)c1)C[C@]1(O)C(=O)C(C)=C[C@@H]41)O2 (some centres unmarked) [compound 38] | partial antagonist | 
5 | C=C(C)[C@@]12C[C@@H](C)C34OC(Cc5ccccc5)(OC1[C@@H]3C=C(COC(=O)Cc1cc(F)c(O)c(OC)c1)C[C@]1(O)C(=O)C(C)=C[C@@H]41)O2 (some centres unmarked) [compound 31] | full agonists | fold less potent than RTX for functional activity (rat TRPV1 [1]): 9 fold
6 | C=C(C)[C@@]12C[C@@H](C)C34OC(Cc5ccccc5)(OC1[C@@H]3C=C(COC(=O)Cc1cc(F)c(N)c(OC)c1)C[C@]1(O)C(=O)C(C)=C[C@@H]41)O2 (some centres unmarked) [compound 37] | full agonist | fold less potent than the parent 36 (agonism) (rat TRPV1 [1]; agonism EC50 versus 4-amino RTX (36)): 2.5 fold
7 | C=C(C)[C@@]12C[C@@H](C)C34OC(Cc5ccccc5)(OC1[C@@H]3C=C(COC(=O)Cc1cc(I)c(O)c(OC)c1)C[C@]1(O)C(=O)C(C)=C[C@@H]41)O2 (some centres unmarked) [compound 2, 5-iodo RTX, reference compound] | full antagonist | 
8 | C=C(C)[C@@]12C[C@@H](C)C34OC(Cc5ccccc5)(OC1[C@@H]3C=C(COC(=O)Cc1cc(Br)c(N)c(OC)c1)C[C@]1(O)C(=O)C(C)=C[C@@H]41)O2 (some centres unmarked) [compound 39, 5-bromo-4-amino RTX] | full antagonist | fold more potent than I-RTX as antagonist (rat TRPV1 [2]): 4 fold
9 | C=C(C)[C@@]12C[C@@H](C)C34OC(Cc5ccccc5)(OC1[C@@H]3C=C(COC(=O)Cc1cc(Cl)c(O)c(OC)c1)C[C@]1(O)C(=O)C(C)=C[C@@H]41)O2 (some centres unmarked) [compound 32] | full agonists | fold less potent than RTX for functional activity (rat TRPV1 [1]): 21 fold

Source: PMC3420360 (Bioorganic & medicinal chemistry letters, 2010)
